Key:
sGC α1/β1 heterodimer = target: T1, sGC α1/β1 heterodimer (Homo sapiens, UniProt Q02108+Q02153); experiment: Cell-Based sGC Functional Assay (CASA Assay), cGMP generation in CHO-K1/sGC cells;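 also: reference Compound A is a published heme-dependent sGC activator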; settings: maximum cGMP production of Compound A set to 100% activation, read-out: % Act. (percent activation relative to Compound A)
T1 construct: expressed in transfected cells
T1 sequence (Q02108 1-690): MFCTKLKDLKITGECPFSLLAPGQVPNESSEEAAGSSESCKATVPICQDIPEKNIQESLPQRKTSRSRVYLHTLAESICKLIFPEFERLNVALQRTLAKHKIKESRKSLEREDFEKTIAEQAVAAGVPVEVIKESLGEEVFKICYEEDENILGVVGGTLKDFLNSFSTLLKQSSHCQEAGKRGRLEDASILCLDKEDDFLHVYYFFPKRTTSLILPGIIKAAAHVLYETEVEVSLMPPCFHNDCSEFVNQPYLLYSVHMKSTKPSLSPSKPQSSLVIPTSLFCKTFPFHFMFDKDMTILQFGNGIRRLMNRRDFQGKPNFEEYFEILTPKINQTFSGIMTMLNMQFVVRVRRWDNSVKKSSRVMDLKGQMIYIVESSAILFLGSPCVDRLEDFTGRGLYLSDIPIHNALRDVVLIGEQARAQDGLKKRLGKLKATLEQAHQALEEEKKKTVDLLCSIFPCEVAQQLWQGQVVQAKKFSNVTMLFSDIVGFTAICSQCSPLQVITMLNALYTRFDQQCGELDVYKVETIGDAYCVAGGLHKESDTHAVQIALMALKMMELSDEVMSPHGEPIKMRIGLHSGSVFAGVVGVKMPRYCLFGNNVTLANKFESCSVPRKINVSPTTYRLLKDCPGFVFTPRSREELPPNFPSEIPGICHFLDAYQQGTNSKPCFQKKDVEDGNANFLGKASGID
T1 sequence (Q02153 1-619): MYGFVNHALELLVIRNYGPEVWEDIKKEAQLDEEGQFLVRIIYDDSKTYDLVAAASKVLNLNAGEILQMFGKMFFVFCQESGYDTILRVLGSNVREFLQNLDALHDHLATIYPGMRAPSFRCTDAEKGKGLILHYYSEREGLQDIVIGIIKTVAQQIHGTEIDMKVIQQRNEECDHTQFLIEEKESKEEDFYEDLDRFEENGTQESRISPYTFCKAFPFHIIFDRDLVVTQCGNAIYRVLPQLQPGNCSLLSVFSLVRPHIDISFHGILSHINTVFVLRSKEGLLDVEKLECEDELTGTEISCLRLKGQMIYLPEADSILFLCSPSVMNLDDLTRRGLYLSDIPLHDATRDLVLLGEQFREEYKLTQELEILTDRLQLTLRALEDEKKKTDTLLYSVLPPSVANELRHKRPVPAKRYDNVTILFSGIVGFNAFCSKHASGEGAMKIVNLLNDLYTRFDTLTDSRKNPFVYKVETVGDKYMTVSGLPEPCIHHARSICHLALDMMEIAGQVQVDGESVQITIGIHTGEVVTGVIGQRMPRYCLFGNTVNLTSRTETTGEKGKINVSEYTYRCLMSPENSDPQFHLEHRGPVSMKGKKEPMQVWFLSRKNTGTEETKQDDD
In short: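 Intracellular cGMP quantified by HTRF competition after 1 h, 37 °C compound exposure, with or without 1 μM DETA-NO, in stable CHO-K1/sGC α1/β1 cells (4×10^5/mL; buffer with 0.5 mM IBMX, 5 mM MgCl2, 10 mM HEPES, 0.05% BSA; 2.5% DMSO). Activation normalized to reference Compound A maximum; 4P fit.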

[1] = tested on: Spontaneously hypertensive rats (SHR); experiment: Acute Efficacy in Spontaneously Hypertensive Rats (SHR), telemetry blood pressure; format: in vivo, rat; settings: single oral gavage
Excerpt: Spontaneously hypertensive rats (SHR, male, Charles River) were implanted with DSI TA11PA-C40 telemetry device (Data Sciences, Inc., St. Paul, Minn.) under isoflurane or ketamine/metomidine anesthesia. The telemetry unit catheter was inserted into the descending aorta via the femoral artery and the telemetry device was implanted subcutaneously in the left flank area. Animals were allowed to recover from surgery for 14 days before the start of any studies. Blood pressure, heart rate, and activity signals from conscious, freely moving rats were recorded continuously for 30 seconds every 10 minutes. On the day prior to administration of compound, a single oral dose of vehicle (10% transcutol/20% Cremophor/70% water) was administered to all animals to establish baseline control data. The blood pressure lowering efficacy of compound (PO) or vehicle was evaluated following a single oral gavage. Data were collected as hourly averages, and changes in blood pressure were calculated by subtracting control baseline data on an hourly basis. Animals were maintained on normal diet with a 12 hour light-dark cycle.
Maximum peak decreases of systolic blood pressure (SBP) in SHR at a particular P.O. dose (mpk milligrams per kilogram) for the following representative compounds are provided. Category A=SBP in SHRs <20 mmHg; Category B=SBP in SHRs 20-40 mmHg; Category C=SBP in SHRs >40 mmHg.

SMILES: CC1(c2ccc(Cl)c(F)c2)C(=O)Nc2nc(-c3cn4ncnc4c(CCC(F)(F)C(F)(F)F)n3)nc(O)c21 (stereo not drawn) [Example 121B, 5-(4-chloro-3-fluorophenyl)-4-hydroxy-5-methyl-2-(8-(3,3,4,4,4-pentafluorobutyl)-[1,2,4]triazolo[1,5-a]pyrazin-6-yl)-5H-pyrrolo[2,3-d]pyrimidin-6(7H)-one]
- Emax (sGC α1/β1 heterodimer): 222%
- Maximum peak decrease of systolic blood pressure (SBP) in SHR, Cat. ([1]; P.O. 1 mpk): B (Category B=SBP in SHRs 20-40 mmHg)

SMILES: CCCc1nc(-c2nc(O)c3c(n2)NC(=O)[C@@]3(C)c2ccc(F)cc2)cn2ncnc12 [Example 165A, (S)-5-(4-fluorophenyl)-4-hydroxy-5-methyl-2-(8-propyl-[1,2,4]triazolo[1,5-a]pyrazin-6-yl)-5,7-dihydro-6H-pyrrolo[2,3-d]pyrimidin-6-one]
- Emax (sGC α1/β1 heterodimer): 114%
- Maximum peak decrease of systolic blood pressure (SBP) in SHR, Cat. ([1]; P.O. 3 mpk): B (Category B=SBP in SHRs 20-40 mmHg)

SMILES: CC1(c2cncc(F)c2)C(=O)Nc2nc(-c3cn4ncnc4c(CCC(F)(F)C(F)(F)F)n3)nc(N)c21 (stereo not drawn) [Example 9A, 4-amino-5-(5-fluoropyridin-3-yl)-5-methyl-2-(8-(3,3,4,4,4-pentafluorobutyl)-[1,2,4]triazolo[1,5-a]pyrazin-6-yl)-5H-pyrrolo[2,3-d]pyrimidin-6(7H)-one]
- Emax (sGC α1/β1 heterodimer): 119%
- Maximum peak decrease of systolic blood pressure (SBP) in SHR, Cat. ([1]; P.O. 1 mpk): B (Category B=SBP in SHRs 20-40 mmHg)

SMILES: CC1(c2ccc(C(F)(F)F)cn2)C(=O)Nc2nc(-c3cn4ncnc4c(CCC(F)(F)F)n3)nc(N)c21 (stereo not drawn) [Example 78B, 4-amino-5-methyl-5-(5-(trifluoromethyl)pyridin-2-yl)-2-(8-(3,3,3-trifluoropropyl)-[1,2,4]triazolo[1,5-a]pyrazin-6-yl)-5H-pyrrolo[2,3-d]pyrimidin-6(7H)-one]
- Emax (sGC α1/β1 heterodimer): 83%
- Maximum peak decrease of systolic blood pressure (SBP) in SHR, Cat. ([1]; P.O. 3 mpk): B (Category B=SBP in SHRs 20-40 mmHg)

SMILES: CC1(c2ccccn2)C(=O)Nc2nc(-c3cn4ncnc4c(CCCC(F)(F)F)n3)nc(N)c21 (stereo not drawn) [Example 36B, 4-amino-5-methyl-5-(pyridin-2-yl)-2-(8-(4,4,4-trifluorobutyl)-[1,2,4]triazolo[1,5-a]pyrazin-6-yl)-5H-pyrrolo[2,3-d]pyrimidin-6(7H)-one]
- Emax (sGC α1/β1 heterodimer): 82%
- Maximum peak decrease of systolic blood pressure (SBP) in SHR, Cat. ([1]; P.O. 1 mpk): B (Category B=SBP in SHRs 20-40 mmHg)

SMILES: CCCCc1nc(-c2nc(O)c3c(n2)NC(=O)C3(C)c2ccc(Cl)cn2)cn2ncnc12 (stereo not drawn) [Example 160A, 2-(8-butyl-[1,2,4]triazolo[1,5-a]pyrazin-6-yl)-5-(5-chloropyridin-2-yl)-4-hydroxy-5-methyl-5H-pyrrolo[2,3-d]pyrimidin-6(7H)-one]
- Emax (sGC α1/β1 heterodimer): 96%
- Maximum peak decrease of systolic blood pressure (SBP) in SHR, Cat. ([1]; P.O. 0.3 mpk): B (Category B=SBP in SHRs 20-40 mmHg)

SMILES: Nc1nc(-c2cn3ncnc3c(CCC(F)(F)C(F)(F)F)n2)nc2c1C(c1ccccn1)(C1CC1)C(=O)N2 (stereo not drawn) [Example 114A, 4-amino-5-cyclopropyl-2-(8-(3,3,4,4,4-pentafluorobutyl)-[1,2,4]triazolo[1,5-a]pyrazin-6-yl)-5-(pyridin-2-yl)-5,7-dihydro-6H-pyrrolo[2,3-d]pyrimidin-6-one]
- Emax (sGC α1/β1 heterodimer): 122%
- Maximum peak decrease of systolic blood pressure (SBP) in SHR, Cat. ([1]; P.O. 1 mpk): B (Category B=SBP in SHRs 20-40 mmHg)

SMILES: CC1(c2ccc(F)cn2)C(=O)Nc2nc(-c3cn4ncnc4c(CCC(F)(F)C(F)(F)F)n3)nc(O)c21 (stereo not drawn) [Example 122B, 5-(5-fluoropyridin-2-yl)-4-hydroxy-5-methyl-2-(8-(3,3,4,4,4-pentafluorobutyl)-[1,2,4]triazolo[1,5-a]pyrazin-6-yl)-5H-pyrrolo[2,3-d]pyrimidin-6(7H)-one]
- Emax (sGC α1/β1 heterodimer): 100%
- Maximum peak decrease of systolic blood pressure (SBP) in SHR, Cat. ([1]; P.O. 1 mpk): B (Category B=SBP in SHRs 20-40 mmHg)

SMILES: CC1(c2ccc(Cl)cn2)C(=O)Nc2nc(-c3cn4ncnc4c(CCCC(F)(F)F)n3)nc(O)c21 (stereo not drawn) [Example 134A, 5-(5-chloropyridin-2-yl)-4-hydroxy-5-methyl-2-(8-(4,4,4-trifluorobutyl)-[1,2,4]triazolo[1,5-a]pyrazin-6-yl)-5H-pyrrolo[2,3-d]pyrimidin-6(7H)-one]
- Emax (sGC α1/β1 heterodimer): 134%
- Maximum peak decrease of systolic blood pressure (SBP) in SHR, Cat. ([1]; P.O. 1 mpk): B (Category B=SBP in SHRs 20-40 mmHg)

SMILES: Cc1nc2c(CCC(F)(F)C(F)(F)F)nc(-c3nc(O)c4c(n3)NC(=O)C4(C)c3ccc(Cl)c(F)c3)cn2n1 (stereo not drawn) [Example 132B, 5-(4-chloro-3-fluorophenyl)-4-hydroxy-5-methyl-2-(2-methyl-8-(3,3,4,4,4-pentafluorobutyl)-[1,2,4]triazolo[1,5-a]pyrazin-6-yl)-5H-pyrrolo[2,3-d]pyrimidin-6(7H)-one]
- Emax (sGC α1/β1 heterodimer): 119%
- Maximum peak decrease of systolic blood pressure (SBP) in SHR, Cat. ([1]; P.O. 1 mpk): A (Category A=SBP in SHRs <20 mmHg)

SMILES: CC1(c2ccc(C#N)cn2)C(=O)Nc2nc(-c3cn4ncnc4c(CCC(F)(F)C(F)(F)F)n3)nc(N)c21 (stereo not drawn) [Example 18A]
- Emax (sGC α1/β1 heterodimer): 75%
- Maximum peak decrease of systolic blood pressure (SBP) in SHR, Cat. ([1]; P.O. 0.3 mpk): C (Category C=SBP in SHRs >40 mmHg)

SMILES: COc1ccc(C2(C3CC3)C(=O)Nc3nc(-c4cn5ncnc5c(CCCC(F)(F)F)n4)nc(N)c32)nc1 (stereo not drawn) [Example 39A, 4-amino-5-cyclopropyl-5-(5-methoxypyridin-2-yl)-2-(8-(4,4,4-trifluorobutyl)-[1,2,4]triazolo[1,5-a]pyrazin-6-yl)-5H-pyrrolo[2,3-d]pyrimidin-6(7H)-one]
- Emax (sGC α1/β1 heterodimer): 96%
- Maximum peak decrease of systolic blood pressure (SBP) in SHR, Cat. ([1]; P.O. 0.3 mpk): B (Category B=SBP in SHRs 20-40 mmHg)

SMILES: CCCCc1nc(-c2nc(N)c3c(n2)NC(=O)[C@@]3(C)c2ccc(F)cc2)cn2ncnc12 [Example 60A, (S)-4-amino-2-(8-butyl-[1,2,4]triazolo[1,5-a]pyrazin-6-yl)-5-(4-fluorophenyl)-5-methyl-5,7-dihydro-6H-pyrrolo[2,3-d]pyrimidin-6-one]
- Emax (sGC α1/β1 heterodimer): 121%
- Maximum peak decrease of systolic blood pressure (SBP) in SHR, Cat. ([1]; P.O. 0.3 mpk): C (Category C=SBP in SHRs >40 mmHg)

SMILES: CCCc1nc(-c2nc(N)c3c(n2)NC(=O)C3(c2ccc(C(F)(F)F)cn2)C2CC2)cn2ncnc12 (stereo not drawn) [Example 56A, 4-amino-5-cyclopropyl-2-(8-propyl-[1,2,4]triazolo[1,5-a]pyrazin-6-yl)-5-(5-(trifluoromethyl)pyridin-2-yl)-5H-pyrrolo[2,3-d]pyrimidin-6(7H)-one]
- Emax (sGC α1/β1 heterodimer): 81%
- Maximum peak decrease of systolic blood pressure (SBP) in SHR, Cat. ([1]; P.O. 3 mpk): B (Category B=SBP in SHRs 20-40 mmHg)

SMILES: CC1(c2ccc(F)c(Cl)c2)C(=O)Nc2nc(-c3cn4ncnc4c(CCCC(F)(F)F)n3)nc(O)c21 (stereo not drawn) [Example 147B, 5-(3-chloro-4-fluorophenyl)-4-hydroxy-5-methyl-2-(8-(4,4,4-trifluorobutyl)-[1,2,4]triazolo[1,5-a]pyrazin-6-yl)-5,7-dihydro-6H-pyrrolo[2,3-d]pyrimidin-6-one]
- Emax (sGC α1/β1 heterodimer): 94%

SMILES: Nc1nc(-c2cn3ncnc3c(CCCC(F)(F)F)n2)nc2c1C(c1nnc(C3(F)CC3)o1)(C1CC1)C(=O)N2 (stereo not drawn) [Example 108A, 4-amino-5-cyclopropyl-5-(5-(1-fluorocyclopropyl)-1,3,4-oxadiazol-2-yl)-2-(8-(4,4,4-trifluorobutyl)-[1,2,4]triazolo[1,5-a]pyrazin-6-yl)-5H-pyrrolo[2,3-d]pyrimidin-6(7H)-one]
- Emax (sGC α1/β1 heterodimer): 107%

Source: patent publication US10925876B2, “Methods for using triazolo-pyrazinyl soluble guanylate cyclase activators in fibrotic disorders” (Merck Sharp & Dohme Corp., priority 2016, dated 2021)
